# Tested on: HepG2 viability, ATP luminescence (CellTiter-Glo), 72 h
# Test: HepG2 hepatoma cell cytotoxicity, dose response, cytotoxicity control, CellTiter-Glo luminescence, cherry-pick, set 3 (AID 720589)
row,SMILES,AC35 [µM]
1,Nc1nc(N)c(-c2cccc(C(F)(F)F)c2)c(Cc2cccc(C(F)(F)F)c2)n1,4.53
2,C[C@@H]1O[C@@H](O[C@H]2C[C@@H](O)[C@]3(CO)[C@H]4[C@H](O)C[C@]5(C)[C@@H](C6COC(=O)C6)CC[C@]5(O)[C@@H]4CC[C@]3(O)C2)[C@H](O)[C@H](O)[C@H]1O (stereo partly drawn),2.62
3,COc1ccccc1NC(=O)N1CCCCN2[C@H](CO)[C@H](c3ccc(-c4cccc(C)c4)cc3)[C@H]2C1,12.5
4,C[C@@H]1CN([C@@H](C)CO)C(=O)c2cccc(NC(=O)CCCCCC(=O)Nc3ccccc3N)c2O[C@@H]1CN(C)Cc1ccc(Oc2ccccc2)cc1,0.458
5,CCCCNC1=CC(=O)C(=O)c2ccccc21,7.32
6,O=C1NC(=O)N(Cc2ccc(F)cc2)C(=O)/C1=C\C=C\c1ccco1,9.05
7,O=C(Nc1ccccc1F)N1CCCCN2[C@H](CO)[C@H](c3ccc(/C=C/c4ccccc4)cc3)[C@H]2C1,4.41
8,Cc1cccc(/C=C(\c2nc3ccccc3[nH]2)S(=O)(=O)c2ccccc2)c1,10.7
9,Cc1cc(-c2nc3cc(F)ccc3s2)ccc1N,0.0938
10,CCN1C/C(=C/c2ccc(N3CCOCC3)cc2)C(=O)/C(=C/c2ccc(N3CCOCC3)cc2)C1,10.5
11,Cc1cccc(CN2C(=O)/C(=C\c3ccc(C(=O)NCCCN4CCN(C)CC4)cc3)Oc3ccccc32)c1,11.2
12,C[C@H](CO)N1C[C@H](C)[C@H](CN(C)Cc2ccc(C(=O)Nc3ccccc3N)cc2)Oc2ccc(N(C)C)cc2C1=O,18.2
13,C[C@H]1O[C@@H](O[C@H]2[C@@H](O)C[C@H](O[C@H]3[C@@H](O)C[C@H](O[C@H]4CC[C@@]5(C)[C@H](CC[C@@H]6[C@@H]5C[C@@H](O)[C@]5(C)[C@@H](C7=CC(=O)OC7)CC[C@]65O)C4)O[C@@H]3C)O[C@@H]2C)C[C@H](O)[C@@H]1O,0.155
14,CCCCCCCCCCCCCCCCn1cc[n+](C)c1,4.54
15,COc1ccc(CC(N)c2csc(NC(=O)Nc3cccc(C(F)(F)F)c3)n2)cc1 (stereo not drawn),6.15
16,OCC1OC(n2ccc3c2ncn2ncnc32)C(O)C1O (stereo not drawn),0.339
17,Cc1nc(N)nc(N)c1-c1ccc(Cl)c(Cl)c1,0.557
18,CN(C[C@H]1N[C@@H](CO)[C@@H]1c1ccc(C2=CCCC2)cc1)C(=O)c1cccc(F)c1,2.88
19,C[C@@H]1CN([C@H](C)CO)C(=O)c2cccc(N(C)C)c2O[C@@H]1CN(C)Cc1ccc(C(=O)Nc2ccccc2N)cc1,3.05
20,COc1ccc(-c2cc(CNc3nc(NC(C)C)nc4cc(-c5ccccc5)sc34)on2)cc1,11
21,COc1cc(/C=N/NC(=O)c2csc3c2CCCC3)cc(OC)c1O,20
22,O=C(/C=C/c1cc(Br)ccc1O)c1ccco1,17.7
23,O=c1ccc2ccccc2c2ccccc12,15.5
24,Nc1ccn([C@@H]2O[C@H](CO)[C@@H](O)C2O)c(=O)n1 (stereo partly drawn),0.477
25,O=C(N/N=C/c1cccs1)c1n[nH]c2c1CCCC2,17.7
26,COc1ccc(/C=C/C(=O)c2cc(F)ccc2OC(=O)c2ccccc2OC)cc1OC,13.9

row,SMILES,AC35 [µM]
1,CC12CCC3C(CCC4(O)CC(O)CCC34C=NO)C1(O)CCC2C1=COC(=O)C1 (stereo not drawn),0.155
2,C=C1C(=O)OC2C1CCC(C)C1C=CC(=O)C12C (stereo not drawn),9.29
3,CC[C@@H]1C[C@H]2CC[C@H](O2)[C@H](C)C(=O)O[C@@H](C)C[C@@H]2CC[C@@H](O2)[C@@H](C)C(=O)O[C@H](C)C[C@H]2CC[C@H](O2)[C@H](C)C(=O)O[C@@H](C)C[C@@H]2CC[C@@H](O2)[C@@H](C)C(=O)O1,0.506
4,NC1=CC(=O)C(=O)c2cccnc21,13.7
5,Oc1c(C(c2ccc(Cl)cc2)N2CCCC2)cc(Cl)c2cccnc12 (stereo not drawn),17.3
6,CC(C)(C)[S@](=O)N1Cc2cc(C(=O)NCC(F)(F)F)nc(-c3cccc(-c4cccc(F)c4)c3)c2[C@@H]1CCO,0.139
7,C[C@@H]1CCCCO[C@H](CN(C)Cc2ccc(C(=O)Nc3ccccc3N)cc2)[C@@H](C)CN([C@@H](C)CO)C(=O)c2cc(NS(=O)(=O)c3ccc(Cl)cc3)ccc2O1,8.5
8,CCCCCCCCNC(C)C(O)c1ccc(SC(C)C)cc1 (stereo not drawn),12.9
9,c1ccc(Nc2nnc(-c3ccc4c(c3)OCO4)o2)cc1,14.3
10,COC(=O)C1=C(C)N(Cc2cccc(C(F)(F)F)c2)C(=NCc2ccc(OC)cc2)NC1c1cccc(F)c1 (stereo not drawn),7.37
11,C[C@@H]1CCCCO[C@H](CN(C)Cc2ccc(C(=O)Nc3ccccc3N)cc2)[C@@H](C)CN([C@H](C)CO)C(=O)c2cc(NS(=O)(=O)c3ccc(Cl)cc3)ccc2O1,9.81
12,CCN1/C(=C/C=C/c2oc3ccc(-c4ccccc4)cc3[n+]2CC)Oc2ccc(-c3ccccc3)cc21,2.37
13,CC(C)CC#Cc1ccc([C@@H]2[C@@H](CO)N3CCCCN(S(=O)(=O)c4ccc(F)cc4)C[C@H]23)cc1,12.7
14,C[C@H]1CN([C@@H](C)CO)S(=O)(=O)c2ccc(C#Cc3ccncc3)cc2O[C@@H]1CN(C)C(=O)Nc1ccc2c(c1)OCO2,0.902
15,C[C@@H]1CN([C@@H](C)CO)C(=O)c2cccc(N(C)C)c2O[C@@H]1CN(C)Cc1ccc(C(=O)Nc2ccccc2N)cc1,4.26
16,C[C@H]1CN([C@@H](C)CO)C(=O)c2cccc(NC(=O)CCCCCC(=O)Nc3ccccc3N)c2O[C@@H]1CN(C)Cc1ccc2c(c1)OCO2,10.5
17,C[C@@H]1CN([C@@H](C)CO)S(=O)(=O)c2ccc(C#CC(C)(C)O)cc2O[C@H]1CN(C)Cc1ccc(-c2ccccc2)cc1,6.19
18,Nc1nc(N)c2c(ccc3nccc32)[nH]1,4.84
19,CCc1ccc(/C=C2\SC(=S)N(CCCC(=O)N3CCN(C)CC3)C2=O)cc1,8.6
20,CCc1nc(N)nc(N)c1-c1ccc(Cl)c(N=[N+]=[N-])c1,5
21,C[C@@H]1CCCCO[C@H](CN(C)Cc2ccc(C(=O)Nc3ccccc3N)cc2)[C@@H](C)CN([C@H](C)CO)C(=O)c2cc(NS(=O)(=O)c3ccc(F)cc3)ccc2O1,10.4
22,CCCCCCCN(c1ccccc1)[C@@H]1C[C@H]2CCCC(=O)N3CC[C@@H](C1)[C@@H]23,17.3
23,C=C1C(=O)[C@@]23[C@H](O)C[C@@H]4C(C)(C)CC[C@H](O)[C@@]4(C)[C@@H]2CC[C@@H]1[C@H]3O,15.3
24,CCCCc1c(Cc2ccccc2)ncn1CCc1ccccc1OC,13.5
25,COC(=O)C1=C(C)N(Cc2ccccc2C(F)(F)F)C(=NCc2ccc(OC)cc2)NC1c1ccc(C(F)(F)F)cc1 (stereo not drawn),11.1
26,Cc1ccc(S(=O)(=O)Nc2ccc3c(c2)C(=O)N([C@H](C)CO)C[C@@H](C)[C@@H](CN(C)Cc2ccc(C(=O)Nc4ccccc4N)cc2)O3)cc1,1.28

row,SMILES,AC35 [µM]
1,Cc1c(CCOC(=O)CC23CC4CC(CC(C)(C4)C2)C3)sc[n+]1CC(=O)c1ccccc1,18.4
2,CCCCC[C@H](C)N1C[C@H](COCc2ccccc2)Oc2cc(N3CC[C@@H](N(C)C)C3)ccc2S1(=O)=O,6.56
3,COc1cc2c(cc1OC)C(C)N(C(=O)c1cc(Cl)nc(Cl)c1)CC2 (stereo not drawn),12.3
4,O=c1c2ccccc2nc(/C=C/c2cc(Br)ccc2O)n1CCCO,6.52
5,Cc1ccc(/C=N/Nc2ccnc3cc(Cl)ccc23)c(C)c1,5.3
6,CCc1cccc2c(C(=O)CN3C(=O)NC4(CCCCC4)C3=O)c[nH]c12,8.59
7,COc1ccc(S(=O)(=O)Nc2ccc3c(c2)C(=O)N([C@H](C)CO)C[C@@H](C)[C@@H](CN(C)Cc2ccc(C(=O)Nc4ccccc4N)cc2)O3)cc1,10.8
8,O=C1c2ccccc2C(=O)c2cc(N3CCCCC3)ccc21,12.5
9,COc1ccc(NC(=O)N2CCCCN3[C@H](CO)[C@H](c4ccc(C#CCC(C)C)cc4)[C@H]3C2)cc1,8.68
10,C[C@]12CC[C@H](O)C[C@H]1CC[C@@H]1[C@@H]2CC[C@]2(C)[C@@H](C3=CC(=O)OC3)CC[C@]12O,2.6
11,N#CC(C#N)=C1C=CC=CN1/C(=C\c1ccco1)C(=O)c1ccc(Cl)cc1,11.2
12,CC12CCC(O)CC1CCC1C2CCC2(C)C(C3=CC(=O)OC3)CCC12O (stereo not drawn),1.17
13,CN(C)c1ccc(N=Nc2nc3ccccc3n2C)cc1,12
14,C[C@H]1CN([C@@H](C)CO)S(=O)(=O)c2ccc(C#CC(C)(C)O)cc2O[C@@H]1CN(C)Cc1ccc(-c2ccccc2)cc1,0.689
15,COc1ccc2cc(C(N)=O)/c(=N\NC(=O)c3ccccc3)oc2c1,17.2
16,C(=NNc1ccc2ccccc2n1)c1ccccn1,1.64
17,C[C@@H]1CN([C@@H](C)CO)C(=O)Cc2cc(NS(=O)(=O)c3cccs3)ccc2O[C@H]1CN(C)Cc1ccc(Cl)c(Cl)c1,0.901
18,CC(=O)OC1CC2(O)C3CCC4CC(O)CCC4(C)C3CCC2(C)C1C1=CC(=O)OC1 (stereo not drawn),0.602
19,C/C(=N\NC(=O)c1n[nH]c2c1CCC2)c1cccs1,15.6
20,Oc1[nH]c2ccc(Br)cc2c1N=NC(=S)N1CCOCC1,2.9
21,Oc1cccc(-c2nnc(-c3cccc(O)c3)nn2)c1,17.5
22,C[C@H](CO)N1C[C@H](C)[C@H](CN(C)Cc2ccc(Oc3ccccc3)cc2)Oc2ccc(NC(=O)Cn3cnnn3)cc2CC1=O,6.59
23,C[C@@H]1O[C@@H](O[C@H]2C[C@@H](O)[C@]3(CO)[C@@H]4C(CC[C@]3(O)C2)[C@@]2(O)CC[C@H](C3COC(=O)C3)[C@@]2(C)C[C@H]4O)[C@H](O)[C@H](O)[C@H]1O (stereo partly drawn),1.47
24,CNC[C@H](CC1CCCCC1)NC[C@H](CO)NCCc1cccc(C(F)(F)F)c1,7.57
25,O=c1ccc2[n+]([O-])c3ccc(O)cc3oc-2c1,5.65
26,CC1(C)N=C(N)N=C(N)N1c1ccc(CCCCc2ccccc2)cc1,2.08

# Reference: PubChem BioAssay AID720589 (Broad Institute, 2013)
